Like-named read-outs stand apart in the source and are kept apart here. Marks after values point to notes of the source that are not given here.
Key:
platelets = details: cited from earlier work
cancer cells = details: cited from earlier work
thrombin = thrombin (Homo sapiens, UniProt P00734); details: cited from earlier work
[1] = oral administration, human body; cited from earlier work
[2] = tested on: acute myocardial ischemia induced by coronary artery ligation in anesthetized dogs; assay: Myocardial ischemia induced by coronary artery ligation in anesthetized dogs, epicardial electrogram mapping; assay type: in vivo, dog; details: 5 mg/kg
Protocol: (§1) Test dogs were divided into the following 8 groups, 6 dogs per group: (1) blank control group, 3 ml/kg physiological saline; (2) 5 mg/kg Diltiazem group; (3) 200 mg/kg “Di'ao Xinxuekang” group; (4) 200 mg/kg ginseng root total ginsenosides (briefly referred as root total ginsenosides) group; (5) 200 mg/kg ginseng stem/leave total ginsenosides (briefly referred as stem/leave total ginsenosides) group; (6) 25 mg/kg total secondary ginsenosides group; (7) 50 mg/kg total secondary ginsenosides group; and (8) 100 mg/kg total secondary ginsenosides group. All test drugs were formulated with distilled water to have the same volume (3 ml/kg), and were administered through duodenum.
(§2) Animals each was anesthetized with sodium pentobarbital (30 mg/kg), operated to form pericardium bed; left circumflex artery was separated, an electromagnetic flow meter probe was placed therein to measure cardiac coronary blood flow (CCBF); middle section of anterior descending coronary artery was separated, braided for ligation to create an experimental acute myocardial ischemia model; a multipoint fixed epicardial lead was sutured and connected with a multichannel electrophysiolograph to record epicardial electrogram. Coronary artery was ligated for 15 minutes, and recorded as control value before administration of drug, test drug or physiological saline was administered via duodenum, 30 mapping point epicardial electrograms were recorded at 15, 30, 45, 60, 90, 120, 180 minutes after the administration of drug, and the degree of myocardial ischemia (Σ-ST, total increase of mv number in S-T section) and the range of myocardial ischemia (N-ST, total increase of point numberin S-T section) were calculated. Blood samples were taken at orifice of coronary sinus vein by cannulation via external jugular vein before ischemia, at 15 minutes after ischemia (before administration of drug), and at 0, 30, 60, 90, 120, 180 minutes after administration of drug, the contents of oxygen in the coronary venous blood were measured by oxyhemograph; cannulation was made to common carotid artery, where the contents of […] in the arterial blood were measured, which together with coronary blood flow were used to calculate myocardial oxygen consumption (MOC). Blood samples were taken at the abovementioned time points to measure the levels of serum creatine kinase (CK) and lactic acid dehydrogenase (LDH); and the levels of blood plasma endothelin (ET), thromboxane B2 (TXB2) and 6-keto-prostaglandin F1a (6-Keto-PGF1a) were measured by an automatic γ-counter radioimmunologically.
(§3) The test results were statistically analyzed, and t-test was used to determine the significance.

[3] = tested on: acute myocardial infarction in dogs; assay: Range of acute myocardial infarction in dogs, N-BT staining; assay type: in vivo, dog; details: 5 mg/kg
Protocol: as §1
Recording was completed at 180 minutes after administration of drug, heart was taken out immediately, cardiac ventricle was cross-sectioned parallel to coronary sulcus under heart ligature to form 5 slices, which were placed in N-BT staining solution and stained at room temperature for 15 minutes. Infarction zone (N-BT non-staining zone) and non-infarction zone (N-BT staining zone) at both sides of each slice of cardiac muscle were measured by using a multimedia color pathologic image analysis system to calculate the area of each slice of cardiac muscle, the total area of the cardiac ventricle and the total area of the infarction zones. The percentages of infarction zones based on the cardiac ventricle and on the whole heart were calculated.
as §3

[4] = tested on: coronary blood flow in experimental myocardial ischemia dogs; assay: Coronary blood flow in experimental myocardial ischemia dogs; assay type: in vivo, dog; details: 5 mg/kg
Protocol: as §1, §2

[5] = tested on: rat arrhythmia induced by BaCl2; assay: Arrhythmia induced by BaCl2 in rats; assay type: in vivo; details: 50 mg/kg
Protocol: 70 SD rats, including half male and half female, were randomly divided into: control group, Diltiazem group, 200 mg/kg Di'ao Xinxuekang group, 200 mg/kg the root total ginsenosides group, and 200, 100, 50, 25 mg/kg dosage groups of the total secondary ginsenosides. On the 7th day of administration of drug, 30 minutes after the administration of drug, each of the rats was anesthetized by intraperitoneal injection of 300 mg/kg 10% chloral hydrate, fixed in supine position on rat bench. The chart speed was set at 50 mm/s, and the sensitivity was set at 20 mm/mv. After printing under standard voltage, normal II Lead electrocardiogram was recorded for a certain period, then the rat was administered with 4 mg/kg barium chloride via sublingual vein and observed immediately to record the electrocardiograms at 1, 5, 10, 15, 20, 25, 30 minutes after the administration of barium chloride. The heart rate was calculated and compared with the reference value before administration, and the onset time and time period of arrhythmia were compared as well. The incidence rates of ventricular premature beat (VP), ventricular tachycardia (VT) and ventricular fibrillation (VF) were calculated.

[6] = tested on: thrombosis in experimental rat jugular arteriovenous bypass; assay: Thrombosis in rat jugular arteriovenous bypass; assay type: in vivo; details: for inhibition at 50 mg/kg: Rattus norvegicus
Protocol: 70 Rats, half male and half female, weighting 250-300 g, were randomly divided into 7 groups, 10 rats per group, and fed for one week in advance. The said 7 groups included high, middle and low dosage groups of the total secondary ginsenosides (200, 100 and 50 mg/kg), and control groups: Diltiazem group (50 mg/kg), Di'ao Xinxuekang group (200 mg/kg), root total ginsenosides group (200 mg/kg) and blank control group (water). administered All the drugs and controls were administered through intragastrical perfusion for 7 days.
Measurement of the rate for inhibition of thrombosis: on the 7th day after administration of drug, 30 minutes after the administration, each of rats was anesthetized with sodium pentobarbital, the left external jugular vein and right common carotid artery were separated, three segments of polyethylene tubes were used to form cannula, and then 5 cm weighed 4-suture was placed in the middle segment. These polyethylene tubes were filled with heparin-physiological saline (50 U/ml). When one end of the tube was inserted into the external jugular vein, one end of the tube was clamped and the end fixed by suture was inserted into the right common carotid artery. After this operation, bleeding was performed immediately and then stopped 15 minutes later, the suture was taken out quickly and weighed. The wet weight of thrombus was calculated by subtracting the suture weight from the total weight. The thrombosis inhibition rate was calculated according to the following formula. Inhibition rate (%)=[(Thrombus weight of the control group)−(Thrombus weight of the group administered with drug)]/(Thrombus weight of the control group)×100% Results: […]

CC(C)=CCC[C@](C)(O)[C@H]1CC[C@]2(C)[C@@H]1[C@H](O)C[C@@H]1[C@@]3(C)CC[C@H](O[C@@H]4O[C@H](CO)[C@@H](O)[C@H](O)[C@H]4O[C@@H]4O[C@H](CO)[C@@H](O)[C@H](O)[C@H]4O)C(C)(C)[C@@H]3CC[C@]12C [Ginsenoside Rg3]
platelet aggregation induced by collagen or ADP (platelets): relatively strong inhibitory effects | anticancer activity (cancer cells): significant anticancer activity

CC(C)=CCC[C@](C)(O)[C@H]1CC[C@]2(C)[C@@H]1[C@H](O)C[C@@H]1[C@@]3(C)CC[C@H](O)C(C)(C)[C@@H]3[C@@H](O[C@@H]3O[C@H](CO)[C@@H](O)[C@H](O)[C@H]3O)C[C@]12C [Ginsenoside Rh1]
conversion of fibrinogen to fibrin induced by thrombin (thrombin): significant inhibitory effects | anticancer activity (cancer cells): significant anticancer activity

CC(C)=CCC[C@](C)(O[C@@H]1O[C@H](CO[C@@H]2O[C@H](CO)[C@@H](O)[C@H](O)[C@H]2O)[C@@H](O)[C@H](O)[C@H]1O)[C@H]1CC[C@]2(C)[C@@H]1[C@H](O)C[C@@H]1[C@@]3(C)CC[C@H](O[C@@H]4O[C@H](CO)[C@@H](O)[C@H](O)[C@H]4O[C@@H]4O[C@H](CO)[C@@H](O)[C@H](O)[C@H]4O)C(C)(C)[C@@H]3CC[C@]12C [ginsenoside-Rb1]
absorption rate [1]: 1%

COc1ccc([C@@H]2Sc3ccccc3N(CCN(C)C)C(=O)[C@@H]2OC(C)=O)cc1 [Diltiazem]
N-ST change rate ([2]; 15 min after drug): 89.60 ± 8.40 % | acute myocardial ischemia (N-ST) ([2]; 15 min after drug): 24.83 ± 2.04 | degree of acute myocardial ischemia (Σ-ST) ([2]; 15 min after drug): 182.00 ± 70.40 mv | Σ-ST change rate ([2]; 15 min after drug): 61.01 ± 20.89 % | N-ST change rate ([2]; 30 min after drug): 89.53 ± 15.49% | acute myocardial ischemia (N-ST) ([2]; 30 min after drug): 25.33 ± 4.08 | degree of acute myocardial ischemia (Σ-ST) ([2]; 30 min after drug): 149.83 ± 41.36 mv | Σ-ST change rate ([2]; 30 min after drug): 48.75 ± 9.99 % | N-ST change rate ([2]; 45 min after drug): 86.82 ± 14.83% | acute myocardial ischemia (N-ST) ([2]; 45 min after drug): 23.17 ± 5.91 | degree of acute myocardial ischemia (Σ-ST) ([2]; 45 min after drug): 126.00 ± 47.35 mv | Σ-ST change rate ([2]; 45 min after drug): 42.43 ± 8.97 % | N-ST change rate ([2]; 60 min after drug): 87.48 ± 15.08% | acute myocardial ischemia (N-ST) ([2]; 60 min after drug): 23.50 ± 4.85 | degree of acute myocardial ischemia (Σ-ST) ([2]; 60 min after drug): 148.67 ± 71.87 mv | Σ-ST change rate ([2]; 60 min after drug): 47.78 ± 10.82 % | N-ST change rate ([2]; 90 min after drug): 81.41 ± 14.31 % | acute myocardial ischemia (N-ST) ([2]; 90 min after drug): 21.50 ± 5.86 | degree of acute myocardial ischemia (Σ-ST) ([2]; 90 min after drug): 140.17 ± 63.46 mv | Σ-ST change rate ([2]; 90 min after drug): 54.98 ± 18.57 % | N-ST change rate ([2]; 120 min after drug): 77.22 ± 16.49 % | acute myocardial ischemia (N-ST) ([2]; 120 min after drug): 20.00 ± 6.00 | degree of acute myocardial ischemia (Σ-ST) ([2]; 120 min after drug): 139.00 ± 69.20 mv | Σ-ST change rate ([2]; 120 min after drug): 52.21 ± 19.91 % | N-ST change rate ([2]; 180 min after drug): 75.89 ± 19.59 % | acute myocardial ischemia (N-ST) ([2]; 180 min after drug): 20.67 ± 5.99 | degree of acute myocardial ischemia (Σ-ST) ([2]; 180 min after drug): 117.17 ± 54.27 mv | Σ-ST change rate ([2]; 180 min after drug): 45.99 ± 18.90 % | acute myocardial ischemia (N-ST) ([2]; before drug): 28.67 | degree of acute myocardial ischemia (Σ-ST) ([2]; before drug): 291.00 ± 40.39 mv | Infarction zone area [3]: 266.25 ± 63.4*** mm^2 | Infraction zone/cardiac ventricle [3]: 5.36 ± 1.70 | Infraction zone/heart [3]: 2.27 ± 0.83 | coronary blood flow ([4]; 30 min after drug): 110.36 ± 58.20 ml/100 g · min^−1 | coronary blood flow change rate ([4]; 30 min after drug): 108.70 ± 3.32 % | coronary blood flow ([4]; 60 min after drug): 119.11 ± 61.62 ml/100 g · min^−1 | coronary blood flow change rate ([4]; 60 min after drug): 117.06 ± 5.17 % | coronary blood flow ([4]; 90 min after drug): 122.97 ± 64.44 ml/100 g · min^−1 | coronary blood flow change rate ([4]; 90 min after drug): 120.06 ± 7.27 % | coronary blood flow ([4]; 120 min after drug): 119.15 ± 65.51 ml/100 g · min^−1 | coronary blood flow change rate ([4]; 120 min after drug): 116.97 ± 7.33 % | coronary blood flow ([4]; 180 min after drug): 112.10 ± 60.59 ml/100 g · min^−1 | coronary blood flow change rate ([4]; 180 min after drug): 112.21 ± 6.46 % | coronary blood flow ([4]; after ischemia before drug): 101.82 ± 54.71 ml/100 g · min^−1 | coronary blood flow change rate ([4]; after ischemia before drug): 110.34 ± 4.17% | coronary blood flow ([4]; before ischemia (normal value)): 92.07 ± 46.98 ml/100 g · min^−1 | Duration of arrhythmia [5]: 13.2 ± 6.0 min | Incidence rate of VF [5]: 0* % | Onset time of VP [5]: 15.0 ± 10.8 s | Onset time of VT [5]: 20 ± 8.8 s | Heart rate ([5]; 5 min after BaCl2): 327 ± 64 beat/min | Heart rate ([5]; 10 min after BaCl2): 360 ± 88 beat/min | Heart rate ([5]; 20 min after BaCl2): 381 ± 71 beat/min | Heart rate ([5]; 30 min after BaCl2): 399 ± 42 beat/min | Heart rate ([5]; before BaCl2): 397 ± 53 beat/min | Wet weight of thrombus ([6]; 50 mg/kg intragastric, 7 days): 0.0200 ± 0.005 g | inhibition at 50 mg/kg ([6]; po, 168 h, 50 mg/kg intragastric, 7 days, read-out: Inhibition rate): 32.9% | inhibition at 50 mg/kg ([6]; 50 mg/kg, read-out: inhibition rate of thrombosis): 33%

CC(C)=CCC[C@](C)(O)[C@H]1CC[C@]2(C)[C@@H]1[C@H](O)C[C@@H]1[C@@]3(C)CC[C@H](O[C@@H]4O[C@H](CO)[C@@H](O)[C@H](O)[C@H]4O)C(C)(C)[C@@H]3CC[C@]12C [Rh2, ginsenoside Rh2]
anticancer activity (cancer cells): significant anticancer activity

From patent US7973014B2, “Medicinal composition containing ginseng secondary glycosides, its preparation method and application” (National Institute of Pharmaceutical R&D Co., Ltd., priority 2005, dated 2011)
